Data on 1 molecule can be found in patent publication US20250352555A1, “METHOD OF INCREASING IMMUNE CELL ACTIVATION AND/OR TREATING CANCER USING DIBENZOXAZEPINONES” (VASCULAR THERAPEUTICS PTY LTD, priority 2022, published 2025).

Common to all, as to type: cell-based, human
For test [1], the system named is DUSP8. The test is described as follows: Western blotting for DUSP8, Jurkat T cells. The note with it: 24 h. Here is the method:
(§1) Western blotting. Cells were treated with compounds and times indicated and total cell lysates were prepared in RIPA buffer. Lysates (10 μg) were resolved by SDS-PAGE and transferred to Immobilon-P polyvinylidene difluoride (PVDF) membranes (Millipore, USA).
(§2) Membranes were blocked with 5% skim milk and incubated with rabbit monoclonal anti-c-Jun (Abcam, cat. no. ab32137; mouse, rat and human reactive) antibody, rabbit monoclonal anti-PD-1 (Abcam, cat. no. ab214421) antibody, mouse monoclonal β-actin antibody (Sigma-Aldrich, cat. no. A5316), anti-phospho-SAPK/JNK (Thr^183/Tyr^185) (98F2) (CST, cat. no. 4671) antibody, anti-phospho-p44/42 MAPK (ERK1/2) (Thr^202/Tyr^204) (D13.14.4E) (CST, cat. no. 4370) antibody, anti-phospho-p38 MAPK (Thr^180/Tyr^182) (D3F9) (CST, cat. no. 4511) antibody, anti-SAPK/JNK antibody (CST, cat. no. 9252), anti-p44/42 MAPK (ERK1/2) (137F5) antibody (CST, cat. no. 4695), anti-p38 MAPK antibody (CST, cat. no. 9212), anti-DUSP8 antibody (Abcam, cat. no. ab198175) or anti-c-MAF (BLR045F) antibody (Abcam, cat. no. ab243901). […] Chemiluminescence was detected using the Western Lightning Chemiluminescence system (Thermo Scientific, USA) and ImageQuant™ LAS 4000 biomolecular imager (GE Healthcare Life Sciences, USA). Band intensity in images generated with the LAS 4000 was quantified using NIH Image J. […]
On the technique in general: In western blotting, separated proteins are transferred to a membrane and probed.

For test [2], the system named is p-ERK (Thr^202/Tyr^204). Put plainly: Western blotting for p-ERK, MeWo melanoma cells. The following applies: 10 or 100 nM, 24 h. Here is the method: as §1
Membranes were blocked with 5% skim milk and incubated with rabbit monoclonal anti-c-Jun (Abcam, cat. no. ab32137; mouse, rat and human reactive) antibody, rabbit monoclonal anti-PD-1 (Abcam, cat. no. ab214421) antibody, mouse monoclonal β-actin antibody (Sigma-Aldrich, cat. no. A5316), anti-phospho-SAPK/JNK (Thr^183/Tyr^185) (98F2) (CST, cat. no. 4671) antibody, anti-phospho-p44/42 MAPK (ERK1/2) (Thr^202/Tyr^204) (D13.14.4E) (CST, cat. no. 4370) antibody, anti-phospho-p38 MAPK (Thr^180/Tyr^182) (D3F9) (CST, cat. no. 4511) antibody, anti-SAPK/JNK antibody (CST, cat. no. 9252), anti-p44/42 MAPK (ERK1/2) (137F5) antibody (CST, cat. no. […] Chemiluminescence was detected using the Western Lightning Chemiluminescence system (Thermo Scientific, USA) and ImageQuant™ LAS 4000 biomolecular imager (GE Healthcare Life Sciences, USA). Band intensity in images generated with the LAS 4000 was quantified using NIH Image J.
The effect of BT2 on ERK phosphorylation (p-ERK) was evaluated in human melanoma cells given that MAP kinase activation is key to melanoma progression and the paucity of clinically approved ERK inhibitors. […]

The subject of test [3] is MeWo cells. Put plainly: Invasion assay (Matrigel), MeWo. The following applies: 1 μM, 48 h, with greater potency than SCH772984. Here is the method: Invasion assays. Cells were grown in medium containing 10% FBS in 24-well plates. The following day the cells were scratched with a sterile toothpick, washed with PBS, and overlayed with 90% Matrigel (cat. no. 354230, Corning) (200 μl/well) containing vehicle, BT2 or SCH772984 at 1 μM. The cells were immediately photographed under a 10× objective using an Olympus CKX41 microscope, incubated at 37° C. for 1 h, and medium (800 μl/well) containing 10% FBS with vehicle, BT2 or SCH772984 at 1 μM was added. After 24 or 48 h, the cells were again photographed under a 10× objective using the same microscope. To assess the effect of BT2 on melanoma cell migration, A375 and MeWo cells were incubated with 1 μM of BT2 or SCH772984, and A375 and MeWo migration into the denuded zone was quantified after 24 or 48 h, respectively.

The test system of test [4] is p-ERK. Put plainly: Western blotting time course for p-ERK, Jurkat T cells. The following applies: Western blot time course. Here is the method:
as §1, §2

Test [5] concerns CD28. The test is described as follows: CD28 blockade experiment, JUN Western blot in Jurkat T cells. The following applies: 3 μM BT2 and 3 μM EGF, 24 h. Here is the method:
CD28 blockade experiments. BT2 (3 nmol), vehicle or a mix of BT2 (3 nmol) and recombinant CD28 (3 nmol, Sino biological cat. no. 90182-C08H) or EGF (3 nmol, Sigma cat. no. E9644) in 150 μl growth medium (10% FBS/RPMI 1640 medium) was preincubated for 30 min at 37° C. The mixtures were added to 12-well plates containing 850 μl of 10% FBS/RPMI 1640 medium and 0.5×10^6 Jurkat T cells/well. After 24 h, total cell lysates were prepared in RIPA buffer. Lysates (10 μg) were resolved by SDS-PAGE and transferred to Immobilon-P polyvinylidene difluoride (PVDF) membranes (Millipore, USA). Membranes were blocked with 5% skim milk and incubated with rabbit monoclonal anti-JUN (Abcam, cat. no. ab32137) antibody, mouse monoclonal β-actin antibody (Sigma-Aldrich, cat. no. A5316), This was followed by incubation with horseradish peroxidase-conjugated secondary goat anti-rabbit (DAKO, cat. no. P0448) or goat anti-mouse (DAKO, cat. no. P0447) antibody. Chemiluminescence was detected using the Western Lightning Chemiluminescence system (Thermo Scientific, USA) and ImageQuant™ LAS 4000 biomolecular imager (GE Healthcare Life Sciences, USA). Band intensity in images generated with the LAS 4000 was quantified using NIH Image J. […]

As for `CCOC(=O)Nc1ccc2c(c1)C(=O)N(CC)c1ccccc1O2` [BT2, (10-ethyl-11-oxo-10,11-dihydro-dibenzo[b,f][1,4]oxazepin-2-yl)-carbamic acid ethyl ester], the “DUSP8 protein levels (Western blot)” value in test [1] is reported as “elevated”. The “ERK phosphorylation (p-ERK, Western blot)” value in test [2] is “suppressed ERK phosphorylation”. Besides, in test [3], the “invasion into the denuded zone of Matrigel” value is given as “suppressed”. Also, the “levels of ERK phosphorylation” value in test [4] is “no effect”. Besides, the “induction of JUN after preincubation of BT2 with EGF” value in test [5] is given as “still induced JUN”.
